# Experimental data as given in US12685735B2 (Foghorn Therapeutics Inc., priority 2020, dated 2026).
# Where two headings read alike, the source gives them in different places.
# Experiments:
# BRM = BRM (Homo sapiens, UniProt P51531); test: ATPase catalytic activity assay of BRM (ADP-Glo); format: biochemical; details: for IC50: read-out: BRM IC50 (μM)*
# Method: (§1) The ATPase catalytic activity of BRM or BRG-1 was measured by the in vitro biochemical assay using ADP-Glo™ (Promega, V9102). The ADP-Glo™ kinase assay is performed in two steps once the reaction is complete. The first step is to deplete any unconsumed ATP in the reaction. The second step is to convert the reaction product ADP to ATP, which will be utilized by the luciferase to generate luminesce and be detected by a luminescence reader, such as Envision.
# (§2) Then following addition of 5 μL of ADP-Glo™ Reagent provided in the kit, the reaction incubates at room temperature for 40 minutes. Then 10 μL of Kinase Detection Reagent provided in the kit is added to convert ADP to ATP, and the reaction incubates at room temperature for 60 minutes. Finally, luminescence measurement is collected with a plate-reading luminometer, such as Envision.
# as §1, with “The” for “The ATPase catalytic activity of BRM or BRG-1 was measured by the in vitro biochemical assay using ADP-Glo™ (Promega, V9102). The”
# BRG-1 = BRG-1 (Homo sapiens, UniProt P51532); test: ATPase catalytic activity assay of BRG-1 (ADP-Glo); format: biochemical; details: ATPase catalytic activity, ADP-Glo; for IC50: read-out: BRG1 IC50 (μM)*; for Emax: read-out: BRG1 Max % Inhibition
# Method: as §1, §2
# as §1, with “The” for “The ATPase catalytic activity of BRM or BRG-1 was measured by the in vitro biochemical assay using ADP-Glo™ (Promega, V9102). The”
# Sequence of BRG-1 (P51532 whole entry): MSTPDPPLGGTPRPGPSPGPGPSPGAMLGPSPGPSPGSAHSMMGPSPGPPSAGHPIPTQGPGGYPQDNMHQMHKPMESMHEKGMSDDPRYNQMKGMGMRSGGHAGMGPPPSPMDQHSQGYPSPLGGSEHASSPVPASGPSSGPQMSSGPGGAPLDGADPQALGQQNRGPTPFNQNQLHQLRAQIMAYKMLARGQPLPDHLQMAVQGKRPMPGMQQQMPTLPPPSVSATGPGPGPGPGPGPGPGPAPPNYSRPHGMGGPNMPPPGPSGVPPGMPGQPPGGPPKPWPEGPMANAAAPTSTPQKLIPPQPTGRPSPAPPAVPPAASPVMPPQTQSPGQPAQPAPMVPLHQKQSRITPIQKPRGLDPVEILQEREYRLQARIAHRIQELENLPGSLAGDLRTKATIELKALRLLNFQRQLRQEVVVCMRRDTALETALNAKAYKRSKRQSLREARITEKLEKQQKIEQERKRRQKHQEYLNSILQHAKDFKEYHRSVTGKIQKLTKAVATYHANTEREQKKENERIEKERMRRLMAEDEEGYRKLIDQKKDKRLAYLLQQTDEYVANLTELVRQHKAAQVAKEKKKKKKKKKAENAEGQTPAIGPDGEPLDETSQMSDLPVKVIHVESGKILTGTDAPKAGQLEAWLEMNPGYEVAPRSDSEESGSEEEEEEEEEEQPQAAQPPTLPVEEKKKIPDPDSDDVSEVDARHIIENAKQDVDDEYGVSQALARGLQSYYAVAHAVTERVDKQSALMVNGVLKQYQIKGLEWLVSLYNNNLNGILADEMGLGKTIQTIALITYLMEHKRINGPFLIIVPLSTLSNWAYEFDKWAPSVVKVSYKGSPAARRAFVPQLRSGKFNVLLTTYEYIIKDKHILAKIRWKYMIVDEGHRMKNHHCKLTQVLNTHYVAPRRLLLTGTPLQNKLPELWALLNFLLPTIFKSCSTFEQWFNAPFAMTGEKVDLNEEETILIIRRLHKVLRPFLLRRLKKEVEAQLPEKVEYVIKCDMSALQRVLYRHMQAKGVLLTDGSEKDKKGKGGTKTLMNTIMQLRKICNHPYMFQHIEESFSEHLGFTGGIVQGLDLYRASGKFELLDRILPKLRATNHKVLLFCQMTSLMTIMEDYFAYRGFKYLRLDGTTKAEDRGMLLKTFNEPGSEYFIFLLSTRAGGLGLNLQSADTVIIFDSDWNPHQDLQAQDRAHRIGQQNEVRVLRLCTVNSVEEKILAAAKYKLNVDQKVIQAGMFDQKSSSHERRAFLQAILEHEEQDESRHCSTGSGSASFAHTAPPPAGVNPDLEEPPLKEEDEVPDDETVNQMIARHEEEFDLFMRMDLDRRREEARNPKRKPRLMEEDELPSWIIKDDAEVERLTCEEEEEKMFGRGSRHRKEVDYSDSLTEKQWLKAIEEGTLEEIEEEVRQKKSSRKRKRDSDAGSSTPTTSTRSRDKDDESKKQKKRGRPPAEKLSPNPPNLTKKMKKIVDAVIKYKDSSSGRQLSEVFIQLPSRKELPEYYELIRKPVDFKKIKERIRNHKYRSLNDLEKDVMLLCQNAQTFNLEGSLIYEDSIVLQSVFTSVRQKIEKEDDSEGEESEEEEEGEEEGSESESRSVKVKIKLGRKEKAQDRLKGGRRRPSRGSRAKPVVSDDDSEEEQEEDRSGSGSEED
# Sequence of BRM (P51531 whole entry): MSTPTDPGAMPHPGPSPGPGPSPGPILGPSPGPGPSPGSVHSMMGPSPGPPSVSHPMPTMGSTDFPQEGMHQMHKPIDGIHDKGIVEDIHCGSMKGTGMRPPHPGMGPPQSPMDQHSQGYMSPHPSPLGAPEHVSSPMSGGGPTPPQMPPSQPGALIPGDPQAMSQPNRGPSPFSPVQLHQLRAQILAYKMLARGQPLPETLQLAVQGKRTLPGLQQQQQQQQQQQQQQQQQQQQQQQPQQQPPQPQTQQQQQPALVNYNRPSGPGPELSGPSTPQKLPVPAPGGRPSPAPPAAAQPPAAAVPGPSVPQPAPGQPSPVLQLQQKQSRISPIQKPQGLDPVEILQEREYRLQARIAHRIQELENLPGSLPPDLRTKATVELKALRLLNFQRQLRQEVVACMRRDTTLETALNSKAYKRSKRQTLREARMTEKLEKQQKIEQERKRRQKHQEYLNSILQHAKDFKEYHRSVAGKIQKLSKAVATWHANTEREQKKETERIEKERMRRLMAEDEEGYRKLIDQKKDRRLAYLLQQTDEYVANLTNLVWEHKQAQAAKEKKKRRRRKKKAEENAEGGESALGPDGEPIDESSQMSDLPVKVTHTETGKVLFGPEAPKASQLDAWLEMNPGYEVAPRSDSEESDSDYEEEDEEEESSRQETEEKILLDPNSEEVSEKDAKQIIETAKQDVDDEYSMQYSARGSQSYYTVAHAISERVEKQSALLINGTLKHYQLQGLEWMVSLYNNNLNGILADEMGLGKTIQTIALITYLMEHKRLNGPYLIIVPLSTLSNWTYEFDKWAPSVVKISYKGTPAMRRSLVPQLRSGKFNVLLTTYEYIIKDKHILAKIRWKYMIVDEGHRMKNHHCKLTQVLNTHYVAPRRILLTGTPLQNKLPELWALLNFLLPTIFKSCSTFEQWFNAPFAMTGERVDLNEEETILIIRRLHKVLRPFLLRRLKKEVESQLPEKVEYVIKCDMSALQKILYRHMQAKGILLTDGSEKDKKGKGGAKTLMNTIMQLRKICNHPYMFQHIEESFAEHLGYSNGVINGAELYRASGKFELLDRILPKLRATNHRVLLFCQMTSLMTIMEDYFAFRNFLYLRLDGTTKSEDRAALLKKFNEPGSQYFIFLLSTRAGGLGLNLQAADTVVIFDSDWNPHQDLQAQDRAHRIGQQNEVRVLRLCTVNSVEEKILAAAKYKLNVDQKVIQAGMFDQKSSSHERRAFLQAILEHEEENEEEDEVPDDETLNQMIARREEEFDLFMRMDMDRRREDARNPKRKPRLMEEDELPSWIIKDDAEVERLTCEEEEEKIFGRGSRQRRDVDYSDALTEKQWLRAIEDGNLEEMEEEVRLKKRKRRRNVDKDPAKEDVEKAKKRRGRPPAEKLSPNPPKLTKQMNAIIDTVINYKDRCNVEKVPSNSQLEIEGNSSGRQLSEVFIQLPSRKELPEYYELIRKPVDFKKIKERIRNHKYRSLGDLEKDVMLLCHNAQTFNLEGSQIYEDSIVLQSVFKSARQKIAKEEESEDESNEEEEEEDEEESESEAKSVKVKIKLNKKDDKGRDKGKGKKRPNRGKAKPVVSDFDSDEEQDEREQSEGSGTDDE
BRM Max % Inhibition (BRM) [%],IC50 (BRM) [µM],IC50 (BRG-1) [µM],Emax (BRG-1) [%],"BRM Max % Inhibition (BRM; 30 nM BRM, 400 μM ATP) [%]","IC50 (BRM; 30 nM BRM, 400 μM ATP) [µM]","IC50 (BRG-1; 30 nM BRG-1, 400 μM ATP) [µM]","Emax (BRG-1; 30 nM BRG-1, 400 μM ATP) [%]",Compound
–,–,–,–,>85,0.1 to 1,> 5,> 85,"C[C@@H]1CN(c2cccc(-c3csc(NC(=O)CNC(=O)c4ccnc(C(C)(C#N)CO)c4)n3)c2)C[C@H](C)O1 (stereo in doubt) [Compound 427, 2-((R)-2-cyano-1-hydroxypropan-2-yl)-N-(2-((4-(3-((cis)-2,6-dimethylmorpholino)phenyl)thiazol-2-yl)amino)-2-oxoethyl)isonicotinamide]"
–,–,–,–,>95,< 0.1,0.1 to 1,> 95,"CC1(C#N)CCOc2ccc(C(=O)NCC(=O)Nc3nc(-c4cccc([C@H]5CC5(F)F)c4)cs3)cc21 (stereo in doubt) [Compound 428, (S)-4-cyano-N-(2-((4-(3-((R)-2,2-difluorocyclopropyl)phenyl)thiazol-2-yl)amino)-2-oxoethyl)-4-methylchromane-6-carboxamide]"
–,–,–,–,>95,< 0.1,1 to 5,> 95,"CC1(C#N)CCOc2ccc(C(=O)NCC(=O)Nc3nc(-c4cccc([C@@H]5CC5(F)F)c4)cs3)cc21 (stereo in doubt) [Compound 429, (S)-4-cyano-N-(2-((4-(3-((S)-2,2-difluorocyclopropyl)phenyl)thiazol-2-yl)amino)-2-oxoethyl)-4-methylchromane-6-carboxamide]"
–,–,–,–,>95,0.1 to 1,1 to 5,> 95,"CC1(C#N)CCOc2ccc(C(=O)NCC(=O)Nc3nc(-c4cccc(C(F)F)n4)cs3)cc21 (stereo in doubt) [Compound 430, (S)-4-cyano-N-(2-((4-(6-(difluoromethyl)pyridin-2-yl)thiazol-2-yl)amino)-2-oxoethyl)-4-methylchromane-6-carboxamide]"
–,–,–,–,>95,< 0.1,0.1 to 1,> 95,"COc1cccc(-c2csc(NC(=O)CNC(=O)c3ccc4c(c3)C(C)(C#N)CCO4)n2)c1 (stereo in doubt) [Compound 431, (S)-4-cyano-N-(2-((4-(3-methoxyphenyl)thiazol-2-yl)amino)-2-oxoethyl)-4-methylchromane-6-carboxamide]"
–,–,–,–,>95,< 0.1,0.1 to 1,> 95,"Cc1cncc(-c2cccc(-c3csc(NC(=O)CNC(=O)c4ccc5c(c4)C(C)(CO)CC5)n3)c2)n1 (stereo in doubt) [Compound 432, (S)-3-(hydroxymethyl)-3-methyl-N-(2-((4-(3-(6-methylpyrazin-2-yl)phenyl)thiazol-2-yl)amino)-2-oxoethyl)-2,3-dihydro-1H-indene-5-carboxamide]"
–,–,–,–,>95,0.1 to 1,1 to 5,> 95,"CC1(C#N)CCOc2ccc(C(=O)NCC(=O)Nc3nc(-c4cccc(C5CC5)n4)cs3)cc21 (stereo in doubt) [Compound 439, (S)-4-cyano-N-(2-((4-(6-cyclopropylpyridin-2-yl)thiazol-2-yl)amino)-2-oxoethyl)-4-methylchromane-6-carboxamide]"

# Second part, the molecule before the results:
Compound,BRM Max % Inhibition (BRM) [%],IC50 (BRM) [µM],IC50 (BRG-1) [µM],Emax (BRG-1) [%],"BRM Max % Inhibition (BRM; 30 nM BRM, 400 μM ATP) [%]","IC50 (BRM; 30 nM BRM, 400 μM ATP) [µM]","IC50 (BRG-1; 30 nM BRG-1, 400 μM ATP) [µM]","Emax (BRG-1; 30 nM BRG-1, 400 μM ATP) [%]"
"C[C@@H]1CN(c2cccc(-c3csc(NC(=O)CNC(=O)c4ccc5c(c4)C(C)(CO)COC5)n3)c2)C[C@H](C)O1 (stereo in doubt) [Compound 373, (S)-N-(2-((4-(3-((cis)-2,6-dimethylmorpholino)phenyl)thiazol-2-yl)amino)-2-oxoethyl)-4-(hydroxymethyl)-4-methylisochromane-6-carboxamide]",>90,0.1 to 1,1 to 5,> 90,–,–,–,–
"CC1(C#N)CCOc2ccc(C(=O)NCC(=O)Nc3nc(-c4cccc([C@H]5CC5(F)F)n4)cs3)cc21 (stereo in doubt) [Compound 378, (S)-4-cyano-N-(2-((4-(6-((R)-2,2-difluorocyclopropyl)pyridin-2-yl)thiazol-2-yl)amino)-2-oxoethyl)-4-methylchromane-6-carboxamide]",>95,0.1 to 1,1 to 5,> 95,–,–,–,–
"CC1(C#N)CCOc2ccc(C(=O)NCC(=O)Nc3nc(-c4cccc([C@@H]5CC5(F)F)n4)cs3)cc21 (stereo in doubt) [Compound 380, (S)-4-cyano-N-(2-((4-(6-((S)-2,2-difluorocyclopropyl)pyridin-2-yl)thiazol-2-yl)amino)-2-oxoethyl)-4-methylchromane-6-carboxamide]",>85,0.1 to 1,1 to 5,> 85,–,–,–,–
"C[C@@H]1CN(c2cccc(-c3csc(NC(=O)CNC(=O)c4cccc([C@@]5(C)COC[C@@H]5O)c4)n3)n2)C[C@H](C)O1 (stereo in doubt) [Compound 413, N-(2-((4-(6-((cis)-2,6-dimethylmorpholino)pyridin-2-yl)thiazol-2-yl)amino)-2-oxoethyl)-3-((cis)-4-hydroxy-3-methyltetrahydrofuran-3-yl)benzamide]",–,–,–,–,>95,0.1 to 1,1 to 5,> 95
"C[C@H](NC(=O)c1ccc2c(c1)C(C)(CO)CC2)C(=O)Nc1nc(-c2cccc(N3CCC3)c2)cs1 (stereo in doubt) [Compound 414, (S)-N-((S)-1-((4-(3-(azetidin-1-yl)phenyl)thiazol-2-yl)amino)-1-oxopropan-2-yl)-3-(hydroxymethyl)-3-methyl-2,3-dihydro-1H-indene-5-carboxamide]",–,–,–,–,>95,0.1 to 1,0.1 to 1,> 95
"CC1(C#N)CCOc2ccc(C(=O)NCC(=O)Nc3nc(-c4cccc(N5CCC5)c4)cs3)cc21 (stereo in doubt) [Compound 416, (S)-N-(2-((4-(3-(azetidin-1-yl)phenyl)thiazol-2-yl)amino)-2-oxoethyl)-4-cyano-4-methylchromane-6-carboxamide]",–,–,–,–,>95,< 0.1,0.1 to 1,> 95
"C[C@@H]1CN(c2cccc(-c3csc(NC(=O)CNC(=O)c4ccc5c(c4)C(C)(C#N)CO5)n3)c2)C[C@H](C)O1 (stereo in doubt) [Compound 417, (R)-3-cyano-N-(2-((4-(3-((cis)-2,6-dimethylmorpholino)phenyl)thiazol-2-yl)amino)-2-oxoethyl)-3-methyl-2,3-dihydrobenzofuran-5-carboxamide]",–,–,–,–,>95,< 0.1,0.1 to 1,> 95
"C[C@@H]1CN(c2cccc(-c3csc(NC(=O)CNC(=O)c4ccc5c(c4)C(C)(C#N)COC5)n3)n2)C[C@H](C)O1 (stereo in doubt) [Compound 420, (R)-4-cyano-N-(2-((4-(6-((cis)-2,6-dimethylmorpholino)pyridin-2-yl)thiazol-2-yl)amino)-2-oxoethyl)-4-methylisochromane-6-carboxamide]",–,–,–,–,>95,< 0.1,< 0.1,> 95
"C[C@@H]1CN(c2cccc(-c3csc(NC(=O)CNC(=O)c4ccc5c(c4)C(C)(C#N)COC5)n3)n2)C[C@H](C)O1 (stereo in doubt) [Compound 421, (S)-4-cyano-N-(2-((4-(6-((cis)-2,6-dimethylmorpholino)pyridin-2-yl)thiazol-2-yl)amino)-2-oxoethyl)-4-methylisochromane-6-carboxamide]",–,–,–,–,>80,1 to 5,> 5,> 80
"CC1(C#N)CCOc2ccc(C(=O)NCC(=O)Nc3nc(-c4cccc(C5(F)COC5)c4)cs3)cc21 (stereo in doubt) [Compound 422, (S)-4-cyano-N-(2-((4-(3-(3-fluorooxetan-3-yl)phenyl)thiazol-2-yl)amino)-2-oxoethyl)-4-methylchromane-6-carboxamide]",–,–,–,–,>95,0.1 to 1,1 to 5,> 95
"CC1(C#N)CCOc2ccc(C(=O)NCC(=O)Nc3nc(-c4cccc(C5COC5)c4)cs3)cc21 (stereo in doubt) [Compound 423, (S)-4-cyano-4-methyl-N-(2-((4-(3-(oxetan-3-yl)phenyl)thiazol-2-yl)amino)-2-oxoethyl)chromane-6-carboxamide]",–,–,–,–,>95,< 0.1,0.1 to 1,> 95
"C[C@@H]1CN(c2cccc(-c3csc(NC(=O)CNC(=O)c4cccc([C@H]5COC[C@H]5O)c4)n3)n2)C[C@H](C)O1 (stereo in doubt) [Compound 425, N-(2-((4-(6-((cis)-2,6-dimethylmorpholino)pyridin-2-yl)thiazol-2-yl)amino)-2-oxoethyl)-3-((trans)-4-hydroxytetrahydrofuran-3-yl)benzamide]",–,–,–,–,>85,0.1 to 1,> 5,> 85
